Experimental data reported in patent publication US6265413A, “Camptothecin compounds and a method of preparation thereof” (priority 1995, dated 2001).
“Also recorded” adds a separate entry of the source. Like-named read-outs stand apart in the source and are kept apart here.

What was measured:
L1210 leukemia = experiment: Prolongation effects of life span against L1210-bearing mice; format: in vivo, BDF1 mice; conditions: for 30 days survivor / ILS(%) / Survival days MST / B.W. Change: i.p., days 1, 3, 5; for B.W. Change: day 1 to day 5
Experimental: Antitumor activities were measured through the experiments on prolongation effects of life span against L1210-bearing mice and tumor growth inhibitory effects against B16-bearing mice. To evaluate the antitumor activities on L1210 leukemia, a certain number of L1210 cells (in vitro) was intraperitoneally inoculated for propagation and the L1210 cells in ascites were harvested from animals sacrificed by cervical dislocation on 7th day after tumor was implanted.
(§1) Male BDF1 mice, weighing about 20 grams, were used. Animal rooms were controlled at 23±2° C. and 60±5% relative humidity, under HEPA filter, and maintained in specific pathogen free (SPF).
5×10^5 of L1210 leukemia cell, obtained in vitro form, were intraperitoneally inoculated in BDF1 mice for propagation. The L1210 tumor cells in ascites were aseptically harvested from BDF1 mice sacrificed by cervical dislocation on 7th day after tumor implantation.
The tumor cells were passaged at least three times prior to use in the test.
5×10^5 cell were intraperitoneally inoculated into BDF1 mice on day 0 and the sample ([…]) were intraperitoneally administration on days 1, 3 and 5. six mice were used for each experimental group.
Antitumor activities were evaluated by the mean survival time of a group of mice and also expressed by the ILS(%) value and the mean animal weights for day 1 and day 5.
Increased Life span (ILS)
ILS(%)={(MST of sample treated group/MST of solvent group)-1}×100

B16 melanoma = format: in vivo, BDF1 mice; conditions: for IR (%) on tumor size / IR (%) on tumor weight / Tumor weight day 20 / Tumor size day 8 / Tumor size day 12 / Tumor size day 16 / Tumor size day 20: days 8, 12, 16; for IR (%) on tumor size / IR (%) on tumor weight: day 20; for Tumor weight day 20: in g (unit assumed); for Tumor size day 8 / Tumor size day 12 / Tumor size day 16 / Tumor size day 20: in mm³ (unit assumed)
Experimental: To investigate tumor growth inhibitory effects against B16 melanoma, a certain number of B16 cells(in vitro) was subcutaneously inoculated for propagation and tumor cells were resected from animals scrificed by cervical dislocation on 14th day after tumor was implanted.
as §1
10^6 of B16 melanoma cell, obtained in vitro form, were subcutaneously in BDF1 mice for propagation. The B16 melanomas were transfered on day 14. The fresh tumors except for necrotized center were aseptically resected from tumor-bearing mice sacrificed by cervical dislocation.
The tumor cells were passaged at least […] three times prior to use in the test.
1 g subcutaneously donor tumor to be subcutaneously was homogenized in cold sterilized saline to give a final concentration of 1 g/10 ml. The 1:10 tumor suspension is injected into all BDF1 mice subcutaneously using 0.2 ml/mouse.
The mice were subcutaneously implanted with such homogenized solution and 7 to 8th day after the tumor implantation, the mice having a certain size of tumors were selected for experiments. Each experimental group were administered with the sample (0.1 ml/10 g) on 8th, 12th and 16th day after the inoculation of tumor. Eight mice were used for each experimental group.
The size of the tumors was calculated by direct measurement of the diameter of the tumors, using the formula.
Where b is the largest diameter and a is the diameter perpendicular to b and growth curves were thus obtained. (FIG. 2)
The inhibition rate of tumor growth on the basis of tumor size was calculated according to the formula.
TWt is the mean tumor volume(weight) of sample-treated groups.
TWc is the mean tumor volume(weight) of control group.

[1] = background art; cited from earlier work
topoisomerase I = conditions: background art; cited from earlier work

CCC1(O)C(=O)OCc2c1cc1n(c2=O)Cc2c-1nc1ccccc1c2CCN(Cc1ccccc1)C(=O)OCc1ccccc1 (racemic) [Example 18, dl-7-[2-(N-benzyl-N-carbobenzyloxyamino)ethyl]camptothecin]
30 days survivor (L1210 leukemia; total dose 10 mg/kg): 0/6
ILS(%) (L1210 leukemia; total dose 10 mg/kg): 33%
Survival days MST (L1210 leukemia; total dose 10 mg/kg): 13.00 days
B.W. Change (L1210 leukemia; total dose 10 mg/kg): -0.25 g
30 days survivor (L1210 leukemia; total dose 50 mg/kg): 0/6
ILS(%) (L1210 leukemia; total dose 50 mg/kg): 64%
Survival days MST (L1210 leukemia; total dose 50 mg/kg): 16.00 days
B.W. Change (L1210 leukemia; total dose 50 mg/kg): -0.80 g

CCC1(O)C(=O)OCc2c1cc1n(c2=O)Cc2c-1nc1ccccc1c2CCNCc1ccccc1 (racemic) [Example 26, dl-7-[2-(N-benzylamino)ethyl]camptothecin]
30 days survivor (L1210 leukemia; total dose 10 mg/kg): 0/6
ILS(%) (L1210 leukemia; total dose 10 mg/kg): 72%
Survival days MST (L1210 leukemia; total dose 10 mg/kg): 15.67 days
B.W. Change (L1210 leukemia; total dose 10 mg/kg): -0.09 g
30 days survivor (L1210 leukemia; total dose 50 mg/kg): 0/6
ILS(%) (L1210 leukemia; total dose 50 mg/kg): 75%
Survival days MST (L1210 leukemia; total dose 50 mg/kg): 16.00 days
B.W. Change (L1210 leukemia; total dose 50 mg/kg): -0.57 g

CCC1(O)C(=O)OCc2c1cc1n(c2=O)Cc2c-1nc1ccccc1c2CCNC(C)C (racemic) [Example 30, dl-7-[2-(N-isopropylamino)ethyl]camptothecin]
ILS(%) and dose range, comparison in words (L1210 leukemia; compared with other compounds / camptothecin (FIG. 1)): better dose dependency and ILS(%) than other compound; also recorded: higher ILS(%) and wider range where the effect was siginificant
30 days survivor (L1210 leukemia; total dose 8.75 mg/kg): 0/6
ILS(%) (L1210 leukemia; total dose 8.75 mg/kg): 58.7%
Survival days MST (L1210 leukemia; total dose 8.75 mg/kg): 15.67 days
B.W. Change (L1210 leukemia; total dose 8.75 mg/kg): +0.7 g
30 days survivor (L1210 leukemia; total dose 10 mg/kg): 0/6
ILS(%) (L1210 leukemia; total dose 10 mg/kg): 42%
Survival days MST (L1210 leukemia; total dose 10 mg/kg): 13.00 days
B.W. Change (L1210 leukemia; total dose 10 mg/kg): -0.71 g
30 days survivor (L1210 leukemia; total dose 17.5 mg/kg): 0/6
Survival days MST (L1210 leukemia; total dose 17.5 mg/kg): 17.75 days
B.W. Change (L1210 leukemia; total dose 17.5 mg/kg): +0.45 g
30 days survivor (L1210 leukemia; total dose 35 mg/kg): 0/6
ILS(%) (L1210 leukemia; total dose 35 mg/kg): 92.4%
Survival days MST (L1210 leukemia; total dose 35 mg/kg): 19.00 days
B.W. Change (L1210 leukemia; total dose 35 mg/kg): -0.12 g
30 days survivor (L1210 leukemia; total dose 50 mg/kg): 0/6
ILS(%) (L1210 leukemia; total dose 50 mg/kg): 119%
Survival days MST (L1210 leukemia; total dose 50 mg/kg): 20.00 days
B.W. Change (L1210 leukemia; total dose 50 mg/kg): -0.57 g
30 days survivor (L1210 leukemia; total dose 70 mg/kg): 0/6
ILS(%) (L1210 leukemia; total dose 70 mg/kg): 143%
Survival days MST (L1210 leukemia; total dose 70 mg/kg): 24.00 days
B.W. Change (L1210 leukemia; total dose 70 mg/kg): -0.79 g
30 days survivor (L1210 leukemia; total dose 140 mg/kg): 0/6
ILS(%) (L1210 leukemia; total dose 140 mg/kg): 110%
Survival days MST (L1210 leukemia; total dose 140 mg/kg): 20.75 days
B.W. Change (L1210 leukemia; total dose 140 mg/kg): -0.93 g
IR (%) on tumor size (B16 melanoma; 35 mg/kg): 27%
IR (%) on tumor weight (B16 melanoma; 35 mg/kg): 40%
Tumor weight day 20 (B16 melanoma; 35 mg/kg): 2.34 ± 0.44
Tumor size day 8 (B16 melanoma; 35 mg/kg): 86.93 ± 11.34
Tumor size day 12 (B16 melanoma; 35 mg/kg): 411.88 ± 71.52
Tumor size day 16 (B16 melanoma; 35 mg/kg): 1234.65 ± 182.64
Tumor size day 20 (B16 melanoma; 35 mg/kg): 3061.34 ± 752.34
IR (%) on tumor size (B16 melanoma; 70 mg/kg): 54.8%
IR (%) on tumor weight (B16 melanoma; 70 mg/kg): 56%
Tumor weight day 20 (B16 melanoma; 70 mg/kg): 1.71 ± 0.18
Tumor size day 8 (B16 melanoma; 70 mg/kg): 86.21
Tumor size day 12 (B16 melanoma; 70 mg/kg): 320.06
Tumor size day 16 (B16 melanoma; 70 mg/kg): 870.46
Tumor size day 20 (B16 melanoma; 70 mg/kg): 1897.88
IR (%) on tumor size (B16 melanoma; 140 mg/kg): 67.72%
IR (%) on tumor weight (B16 melanoma; 140 mg/kg): 71.6%
Tumor weight day 20 (B16 melanoma; 140 mg/kg): 1.11 ± 0.21
Tumor size day 8 (B16 melanoma; 140 mg/kg): 86.94 ± 9.34
Tumor size day 12 (B16 melanoma; 140 mg/kg): 328.98 ± 76.57
Tumor size day 16 (B16 melanoma; 140 mg/kg): 695.75 ± 82.77
Tumor size day 20 (B16 melanoma; 140 mg/kg): 1353.91 ± 134.36
antitumor activity, comparison in words (B16 melanoma; ascites and solid type tumor, compared with camptothecin): better antitumor activity on ascites tumor and solid type tumor
toxicity and safety margin, comparison in words (B16 melanoma; mouse, in vivo): less toxicity and a wide range of safety margin

CCc1c2c(nc3ccc(OC(=O)N4CCC(N5CCCCC5)CC4)cc13)-c1cc3c(c(=O)n1C2)COC(=O)[C@]3(O)CC [CPT-11]
antineoplastic activity in clinical trial / treatment [1]: excellent antineoplastic activities

CC[C@@]1(O)C(=O)OCc2c1cc1n(c2=O)Cc2cc3ccccc3nc2-1 [Camptothecin, camptothecin]
IR (%) on tumor size (B16 melanoma; 10 mg/kg): 57.8%
IR (%) on tumor weight (B16 melanoma; 10 mg/kg): 59%
Tumor weight day 20 (B16 melanoma; 10 mg/kg): 1.61 ± 0.30
Tumor size day 8 (B16 melanoma; 10 mg/kg): 85.95 ± 13.15
Tumor size day 12 (B16 melanoma; 10 mg/kg): 458.56 ± 53.87
Tumor size day 16 (B16 melanoma; 10 mg/kg): 1035.98 ± 129.36
Tumor size day 20 (B16 melanoma; 10 mg/kg): 1775.50 ± 300.91
toxicity in clinical trial [1]: severe toxicity
mode of action on topoisomerase I (topoisomerase I): specific mode of action to inhibit topoisomerase I; also recorded: binds covalently with topoisomerase I
